# Data from patent US9169223B2, “Functionalised antifouling compounds and use thereof” (Agency for Science, Technology and Research, priority 2010, dated 2015).
# Where two headings read alike, the source gives them in different places.
# Tests used:
# barnacle cyprids = experiment: Settlement assay with barnacle cyprids; format: in vivo, Amphibalanus amphitrite; settings: for TR (LD50/ED50): therapeutic ratio, LD50 (nauplii) / ED50 (cyprids); for IC50: Amphibalanus amphitrite, 24 h
# Method: (§1) Biological assays were conducted with larval barnacles. Barnacles are dominant and tenacious members of marine fouling communities, and often serve as a substrate for less resistant organisms. Therefore, historically they have been used as a model organism for antifouling studies. To determine the biological response of larvae to test compounds, two bioassays were performed: settlement (using settlement stage cyprids), and toxicity (using nauplii).
# (§2) Stock solutions of each compound were made at 50 mg/ml. Pure compounds were diluted in DMSO and sonicated. Stock solutions were stored at −20° C. in 4 ml amber screw cap vials until use. For bioassays, a small amount of stock solution was diluted in 1 μm filtered seawater (in a glass scintillation vial). The solution was then sonicated for 10 minutes. To obtain the desired concentration range, serial dilutions of the test solution were made. As control, a serial dilution of the equivalent amounts of DMSO in seawater was used.
# Nauplii were cultured as described above, and then reared at 25° C. on an algal mixture of 1:1 v/v of Tetraselmis suecica and Chaetoceros muelleri (approximately density 5×10^5 cells per ml). Under these conditions, nauplii typically metamorphose to cyprids in 5 days. Cyprids were aged at 4° C. for 2 days.
# Settlement assays were conducted in 7 ml neutral glass vials (Samco® T103/V1; 34×23 mm diameter). For assays, each solution was made at twice the desired final concentration; 0.5 ml of this solution was transferred to vials. To each vial, cyprids were added by transferring 0.5 ml filtered seawater containing 20-40 aged cyprids. As in toxicity assays: each compound at each concentration was run in triplicate with cyprids from a single batch; two controls (filtered seawater and DMSO) were run along with each assays; and the overall assay was conducted twice, using two different batches of cyprids.
# Assays were conducted for 24 hours, after which time the number of settled cyprids, the number of free swimming (unsettled) cyprids, and the number of dead cyprids were counted for each vial. Both metamorphosed, juvenile barnacles and cyprids that had committed to settlement (glued themselves to the vial), but had not yet metamorphosed, were counted as ‘settled’. Data was expressed as percent settlement. […] If ED50 could not be calculated using probit analysis, values were extrapolated based on plotted data.
# [1] = test system: stage II naupliar larvae of the barnacle Amphibalanus amphitrite; experiment: Toxicity assay with barnacle nauplii; format: in vivo
# Method: as §1, with “nauplii). Procedures followed methods standard in the field, which were first described by Rittschof et al. (1992).” for “nauplii).”
# as §2
# Toxicity assays employed stage II naupliar larvae of the barnacle Amphibalanus amphitrite (previously Balanus amphitrite: Pitombo, 2004). Assay procedures were modified from Rittschof et al. (1992). Adult A. amphitrite were collected from inter-tidal areas near the Kranji mangrove, Singapore. Larval culture was based on Rittschof et al. (1984). Following collection, nauplii were concentrated for use in bioassays by placing a fiber optic light source at one side of the container, and pipetting from the resulting dense cloud of nauplii.
# In order to determine LD50 values for each compound, compounds were tested over a range of concentrations between 0-50 μg/ml. For each assay, each compound at each concentration was tested in triplicate with a single batch of nauplii. The overall assay was conducted twice, using two different batches of nauplii. Two controls were run along with each assay (in triplicate): filtered seawater only, and DMSO at […] (since DMSO was used as a solvent for test compounds, this concentration is equivalent to the concentration of DMSO in the highest test compound concentration).
# For assays, approximately 20 nauplii (in 50 μl filtered seawater) were added to 1 ml test solution or control, in a 2 ml glass vial (La Pha Pack® PN 11-14-0544). Assays were run for 22-24 hours at 25-27° C. After this time, living and dead nauplii were counted using a Bogorov tray. Nauplii that were approaching death were scored as dead. Data for all assays was combined and LD50 was calculated (where possible) using a probit analysis (Libermann, 1983). If LD50 could not be calculated using probit analysis, values were extrapolated based on plotted data.
# [2] = anti-settlement, barnacle cyprids, 24 hours, concentration causing 50% reduction in settlement vs controls
# [3] = Amphibalanus amphitrite (barnacle), stage II naupliar larvae, in vivo
# [4] = anti-settlement, barnacle cyprids, 24 hours, concentration causing 50% reduction in settlement vs controls, read-out: ED50 (the source's name)
SMILES,ED50 (barnacle cyprids; [2]) [µg/mL],TR (LD50/ED50) (barnacle cyprids),"LD50 [1, 3] [µg/mL]",IC50 (barnacle cyprids; [4]) [µg/mL],IC50 (barnacle cyprids; read-out: ED50) [µg/mL],"LD50 ([1]; toxicity, barnacle nauplii, 22-24 hours, 0-50 μg/ml) [µg/mL]"
"CCCCC(C(=O)N1CCCCC1)c1ccc(OC)cc1OC (single isomer, unassigned) [Compound 15.6]",9.12,3.64,33.21,,,
"CCCCC(C(=O)N1CCCCC1)c1ccccc1CO (single isomer, unassigned) [Compound 16.1]",4.11,>12.17,>50,,,
"CCCCC(C(=O)N1CCCCC1)c1ccccc1 (centres unmarked) [Compound 12.1, reference compound]",,6.07,9.11,1.5,,
"CCCCC(CCCC)C(=O)N1CCCCC1 [Compound 12.2, reference compound]",,4.92,9.83,2,,
"CCCCC(C(=O)N1CCCCC1)c1ccc(OC)cc1 (centres unmarked) [Compound 15.1, 2-(4-methoxy)phenyl-(1-piperidin-1-yl)hexanone]",,120.79,22.95,0.19,,
CCCCC(C(=O)N1CCCCC1)c1cccc(OC)c1 (centres unmarked) [Compound 15.2],,>17.12,>25,1.46,,
CCCCC(C(=O)N1CCCCC1)c1ccccc1OC (centres unmarked) [Compound 15.3],,1.29,3.67,2.85,,
CCCCC(C(=O)N1CCCCC1)c1cc(OC)cc(OC)c1 (centres unmarked) [Compound 15.4],,2.5,8.22,3.29,,
CCCCC(C(=O)N1CCCCC1)c1cc(OC)ccc1OC (centres unmarked) [Compound 15.5],,4.01,8.66,2.16,,
"CCCCC(C(=O)N1CCCCC1)c1ccc(OC(C)=O)cc1 (centres unmarked) [Compound 16.4, 4-(1-oxo-1-(piperidin-1-yl)hexan-2-yl)phenyl acetate]",,118.26,27.2,0.23,,
"CCCCC(C(=O)N1CCCCC1)c1ccc(O)cc1 (centres unmarked) [Compound 16.5, 2-(4-hydroxyphenyl)-1-(piperidin-1-yl)hexan-1-one]",,90.26,17.15,0.19,,
"CCCCC(C(=O)N1CCCCC1)c1ccc(OCCO)cc1 (centres unmarked) [Compound 16.6, 2-(4-(2-hydroxyethoxy)phenyl)-1-(piperidin-1-yl)hexan-1-one]",,>5.41,>50,9.25,,
"CCCCC(C(=O)N1CCCCC1)c1ccc(OCC(=O)OC)cc1 (centres unmarked) [Compound 16.7, Methyl 2-(4-(1-oxo-1-(piperidin-1-yl)hexan-2-yl)phenoxy)acetate]",,0.91,24.58,26.9,,
"CCCCC(C(=O)N1CCCCC1)c1ccc(OCCOC(C)=O)cc1 (centres unmarked) [Compound 16.8, 2-(4-(1-oxo-1-(piperidin-1-yl)hexan-2-yl)phenoxy)ethyl acetate]",,1.72,>50,29.1,,
"CCCCC(C(=O)N1CCCCC1)c1ccc(OCC(=O)O)cc1 (centres unmarked) [Compound 16.9, 2-(4-(1-oxo-1-(piperidin-1-yl)hexan-2-yl)phenoxy)acetic acid]",,,>50,> 50,,
"CCCCC(C(=O)N1CCCCC1)c1ccc(OCC[Si](C)(C)C)cc1 (centres unmarked) [Compound 16.10, 1-(piperidin-1-yl)-2-(4-(2-(trimethylsilyl)ethoxy)phenyl)hexan-1-one]",,>14.33,,,3.49,>50
"C=CC(=O)Oc1ccc(C(CCCC)C(=O)N2CCCCC2)cc1 (centres unmarked) [Compound 16.11, 4-(1-oxo-1-(piperidin-1-yl)hexan-2-yl)phenyl acrylate]",,4.29,6.57,1.53,,
"C=CCCCCC(C(=O)N1CCCCC1)c1ccc(OC)cc1 (centres unmarked) [Compound 17.1, 2-(4-methoxyoxyphenyl)-1-(piperidin-1-yl)oct-7-en-1-one]",,3.91,9.27,2.37,,
"CCCCC(C(=O)N(C)C)c1ccc(OC)cc1 (centres unmarked) [Compound 17.2, 2-(4-methoxyphenyl)-N,N-dimethylhexanamide]",,>5.75,>50,8.69,,
"C=CCCCCC(C(=O)N(C)C)c1ccc(OC)cc1 (centres unmarked) [Compound 17.3, 2-(4-methoxyphenyl)-N,N-dimethyloct-7-enamide]",,6.53,18.61,2.85,,
CCCCC(C(=O)N1CCCCC1)c1ccccc1O (centres unmarked) [Compound 17.4],,22.49,14.62,0.65,,
CCCCC(C(=O)N1CCCCC1)c1cccc(O)c1 (centres unmarked) [Compound 17.5],,7.31,25.14,3.44,,
"C=CCCCCC(C(=O)N1CCCCC1)c1ccc(O)cc1 (centres unmarked) [Compound 17.6, 2-(4-hydroxyphenyl)-1-(piperidin-1-yl)oct-7-en-1-one]",,4.59,9.82,2.14,,
"CCCCC(C(=O)N(C)C)c1ccc(O)cc1 (centres unmarked) [Compound 17.7, 2-(4-hydroxyphenyl)-N,N-dimethylhexanamide]",,>1.46,>50,34.1,,
"C=CCCCCC(C(=O)N(C)C)c1ccc(O)cc1 (centres unmarked) [Compound 17.8, 2-(4-hydroxyphenyl)-N,N-dimethyloct-7-enamide]",,2.90,12.46,4.29,,
"CCCCC(C(=O)N1CCCCC1)c1ccc(C(=O)O)cc1 (centres unmarked) [Compound 17.9, 4-(1-oxo-1-(piperidin-1-yl)hexan-2-yl)benzoic acid]",,1,>50,> 50,,
